target: T1, CDK2 (Homo sapiens, UniProt P24941); test: Phospho-RB measurement in OVCAR3 cells (HTRF phospho-RB S807/811); assay type: cell-based; conditions: phosphorylation of RB protein at S807/811, HTRF, 24 h compound treatment, 0.3 to 10,000 nM, read-out: pRb (uM)
T1 construct: endogenous in cells; host or cells: OVCAR3 cells
Protocol: The ability of compounds of Formula (I) to inhibit CDK2 was determined in OVCAR3 cells. Phosphorylation of RB protein at S807/811 were measured using HTRF phospho-RB cellular kits (Cat #64RBS807PEG) from Cisbio.
On Day 1, OVCAR3 cells were seeded into 96-well tissue-culture treated plates at 20,000 cells/well in 200 μL and incubated overnight at 37° C. in CO2 atmosphere. On Day 2, the cells were treated with test compounds at concentrations from 0.3 to 10,000 nM using HP D300 digital dispenser. Twenty-four hours after compound treatment, cell culture media was removed by flicking the plate and tapping the plate against clean paper towel. Immediately 30 μL 1× lysis buffer was supplemented from the kit and the plate was incubated at room temperature on shaker for 30 min. After homogenization by pipetting up and down, 8 μL cell lysate from 96-well cell culture plate was transferred to 384-well small volume white detection plate. 2 μL premixed detection solution was added and the plate was covered with sealer. To prepare the detection solution, d2 conjugated-phospho-RB antibody and Eu-cryptate conjugated phosphor-RB antibody were diluted into detection buffer following manufacturer's instruction.
Detection plates were incubated for 4 h at room temperature and read on ClarioStar (BMG Labtech) in TR-FRET mode ([…]). The TR-FRET ratio (665 nM1/620 nM) was plotted against the compound concentration and normalized to DMSO controls. Half maximal inhibition concentration (IC50) values are calculated with a four-parameter logistic fit using GraphPad Prism (version 8; La Jolla, CA).

Row | SMILES | IC50
1 | C[C@@H]1COC[C@@H](C)N1c1nc(-c2cccc(NS(=O)(=O)c3c(F)cccc3F)c2F)c(-c2ccnc(NC3CC4(C3)CS(=O)(=O)C4)n2)s1 [Example 56, N-(3-(2-((3R,5R)-3,5-dimethylmorpholino)-5-(2-((2,2-dioxido-2-thiaspiro[3.3]heptan-6-yl)amino)pyrimidin-4-yl)thiazol-4-yl)-2-fluorophenyl)-2,6-difluorobenzenesulfonamide] | 0.11 µM
2 | O=S1(=O)CC2(CC(Nc3nccc(-c4sc(N5C6CCC5CN(CC(F)(F)F)C6)nc4-c4cccc(NS(=O)(=O)c5c(F)cccc5F)c4F)n3)C2)C1 [Example 139, N-(3-(5-(2-((2,2-dioxido-2-thiaspiro[3.3]heptan-6-yl)amino)-pyrimidin-4-yl)-2-(3-(2,2,2-trifluoroethyl)-3,8-diazabicyclo-[3.2.1]octan-8-yl)thiazol-4-yl)-2-fluorophenyl)-2,6-difluoro-benzenesulfonamide] | 0.13 µM
3 | CN1CC2CCC(C1)N2c1nc(-c2cccc(NS(=O)(=O)c3c(F)cccc3C(F)(F)F)c2F)c(-c2ccnc(NC3CC4(C3)CS(=O)(=O)C4)n2)s1 [Example 51, N-(3-(5-(2-((2,2-dioxido-2-thiaspiro[3.3]heptan-6-yl)amino)-pyrimidin-4-yl)-2-(3-methyl-3,8-diazabicyclo[3.2.1]octan-8-yl)thiazol-4-yl)-2-fluorophenyl)-2-fluoro-6-(trifluoromethyl)-benzenesulfonamide] | 0.04 µM
4 | O=S1(=O)C[C@@H]2[C@H](C1)[C@H]2Nc1nccc(-c2sc(N3C4CCC3CN(C3CC3)C4)nc2-c2cccc(NS(=O)(=O)c3c(F)cccc3F)c2F)n1 [Example 127, N-(3-(2-(3-cyclopropyl-3,8-diazabicyclo[3.2.1]octan-8-yl)-5-(2-(((1R,5S,6r)-3,3-dioxido-3-thiabicyclo[3.1.0]hexan-6-yl)amino)-pyrimidin-4-yl)thiazol-4-yl)-2-fluorophenyl)-2,6-difluorobenzene-sulfonamide] | 0.06 µM
5 | O=S1(=O)CC2C(C1)C2Nc1nccc(-c2sc(C34CC(C3)C4)nc2-c2cccc(NS(=O)(=O)c3c(F)cccc3F)c2F)n1 (stereo not shown) [Example 93, N-(3-(2-(bicyclo[1.1.1]pentan-1-yl)-5-(2-((3,3-dioxido-3-thiabicyclo[3.1.0]hexan-6-yl)amino)pyrimidin-4-yl)thiazol-4-yl)-2-fluorophenyl)-2,6-difluorobenzenesulfonamide] | 0.04 µM
6 | CC1(C)CCN1c1nc(-c2cccc(NS(=O)(=O)c3c(F)cccc3F)c2F)c(-c2ccnc(N[C@H]3[C@@H]4CS(=O)(=O)C[C@@H]43)n2)s1 [Example 100, N-(3-(2-(2,2-dimethylazetidin-1-yl)-5-(2-(((1R,5S,6r)-3,3-dioxido-3-thiabicyclo[3.1.0]hexan-6-yl)amino)pyrimidin-4-yl)thiazol-4-yl)-2-fluorophenyl)-2,6-difluorobenzenesulfonamide] | 0.1 µM
7 | O=S1(=O)CC2(CC(Nc3nccc(-c4sc(N5CC6CCC(CC6)C5)nc4-c4cccc(NS(=O)(=O)c5c(F)cccc5F)c4F)n3)C2)C1 [Example 21] | 0.24 µM
8 | C[C@H]1CNC[C@H](C)N1c1nc(-c2cccc(NS(=O)(=O)c3c(F)cccc3F)c2F)c(-c2ccnc(NC3CC4(C3)CS(=O)(=O)C4)n2)s1 [Example 62, N-(3-(2-((2S,6S)-2,6-dimethylpiperazin-1-yl)-5-(2-((2,2-dioxido-2-thiaspiro[3.3]heptan-6-yl)amino)pyrimidin-4-yl)thiazol-4-yl)-2-fluorophenyl)-2,6-difluorobenzenesulfonamide] | 3.86 µM
9 | CS(=O)(=O)[C@H]1CC[C@H](Nc2nccc(-c3sc(C4(C(F)(F)F)CC4)nc3-c3cccc(NS(=O)(=O)c4c(Cl)cccc4C(F)(F)F)c3F)n2)CC1 [Example 133, 2-chloro-N-(2-fluoro-3-(5-(2-(((1r,4r)-4-(methylsulfonyl)-cyclohexyl)amino)pyrimidin-4-yl)-2-(1-(trifluoromethyl)-cyclopropyl)thiazol-4-yl)phenyl)-6-(trifluoromethyl)benzene-sulfonamide] | 0.12 µM
10 | O=S1(=O)CC2(CC(Nc3nccc(-c4sc(C56CC(C(F)F)(C5)C6)nc4-c4cccc(NS(=O)(=O)c5c(F)cccc5C(F)(F)F)c4F)n3)C2)C1 [Example 92, N-(3-(2-(3-(difluoromethyl)bicyclo[1.1.1]pentan-1-yl)-5-(2-((2,2-dioxido-2-thiaspiro[3.3]heptan-6-yl)amino)pyrimidin-4-yl)thiazol-4-yl)-2-fluorophenyl)-2-fluoro-6-(trifluoromethyl)benzenesulfonamide] | 0.04 µM
11 | O=S1(=O)CC2(CC(Nc3nccc(-c4sc(N5C6CCC5CN(C5COC5)C6)nc4-c4cccc(NS(=O)(=O)c5c(F)cccc5F)c4F)n3)C2)C1 [Example 144, N-(3-(5-(2-((2,2-dioxido-2-thiaspiro[3.3]heptan-6-yl)amino)-pyrimidin-4-yl)-2-(3-(oxetan-3-yl)-3,8-diazabicyclo[3.2.1]octan-8-yl)thiazol-4-yl)-2-fluorophenyl)-2,6-difluorobenzenesulfonamide] | 0.24 µM
12 | O=S1(=O)C[C@@H]2[C@H](C1)[C@H]2Nc1nccc(-c2sc(C34CC(C3)C4)nc2-c2cccc(NS(=O)(=O)c3c(F)cccc3C(F)(F)F)c2F)n1 [Example 103, N-(3-(2-(bicyclo[1.1.1]pentan-1-yl)-5-(2-(((1R,5S,6r)-3,3-dioxido-3-thiabicyclo[3.1.0]hexan-6-yl)amino)pyrimidin-4-yl)thiazol-4-yl)-2-fluorophenyl)-2-fluoro-6-(trifluoromethyl)benzenesulfonamide] | 0.1 µM
13 | CC1(C)CCCN1c1nc(-c2cccc(NS(=O)(=O)c3c(F)cccc3F)c2F)c(-c2ccnc(NC3CC4(C3)CS(=O)(=O)C4)n2)s1 [Example 24, N-(3-(2-(2,2-dimethylpyrrolidin-1-yl)-5-(2-((2,2-dioxido-2-thiaspiro[3.3]heptan-6-yl)amino)pyrimidin-4-yl)thiazol-4-yl)-2-fluorophenyl)-2,6-difluorobenzenesulfonamide] | 1.46 µM
14 | O=S1(=O)CC2(CC(Nc3nccc(-c4sc(N5C6CCC5CN(C5CC5)C6)nc4-c4cccc(NS(=O)(=O)c5c(F)cccc5C(F)(F)F)c4F)n3)C2)C1 [Example 82, N-(3-(2-(3-cyclopropyl-3,8-diazabicyclo[3.2.1]octan-8-yl)-5-(2-((2,2-dioxido-2-thiaspiro[3.3]heptan-6-yl)amino)pyrimidin-4-yl)thiazol-4-yl)-2-fluorophenyl)-2-fluoro-6-(trifluoromethyl)benzenesulfonamide] | 0.13 µM
15 | O=S1(=O)CC2(CC(Nc3nccc(-c4sc(C5(C(F)F)CC5)nc4-c4cccc(NS(=O)(=O)c5c(F)cccc5F)c4F)n3)C2)C1 [Example 16, N-(3-(2-(1-(difluoromethyl)cyclopropyl)-5-(2-((2,2-dioxido-2-thiaspiro[3.3]heptan-6-yl)amino)pyrimidin-4-yl)thiazol-4-yl)-2-fluorophenyl)-2,6-difluorobenzenesulfonamide] | 0.13 µM
16 | CN1CC2CCC(C1)N2c1nc(-c2cccc(NS(=O)(=O)c3c(OC(F)F)cccc3C(F)(F)F)c2F)c(-c2ccnc(NC3CC4(C3)CS(=O)(=O)C4)n2)s1 [Example 75, 2-(difluoromethoxy)-N-(3-(5-(2-((2,2-dioxido-2-thiaspiro[3.3]heptan-6-yl)amino)pyrimidin-4-yl)-2-(3-methyl-3,8-diazabicyclo[3.2.1]octan-8-yl)thiazol-4-yl)-2-fluorophenyl)-6-(trifluoromethyl)benzenesulfonamide] | 0.85 µM

Reference: patent US12331026B2 (NiKang Therapeutics, Inc., priority 2022, dated 2025)
